{"source": "patent US5560935A", "about": "“Physiologically active substances extracted from activated tissues” (Nippon Zoki Pharmaceutical Co., Ltd., priority 1993, dated 1996)"}
{"system": "plasma kallikrein", "experiment": "Inhibition of the production of plasma kallikrein (kaolin-activated plasma, synthetic substrate)", "type": "biochemical", "details": "normal human plasma, kaolin activation, substrate D-Pro-Phe-Arg-p-nitroaniline", "experimental": "The inhibitory action of the physiologically-active substance against the production of plasma kallikrein was measured according to a method described in Kiso to Rinsho, vol. 20, no. 17, pages 399-405 (1986).\nThus, a suspension of kaolin was added to normal human plasma diluted with a physiologically saline solution. A lima bean trypsin inhibitor was added thereto after a certain period to stop the kallikrein procluction reaction. Then the resulting kallikrein was determined by using a synthetic substrate (D-Pro-Phe-Arg-p-nitroaniline). The test substance was placed in the above system whereby the inhibitory action of the test substance against the production of kallikrein was determined.\nIn Table 1 the potency of the activity is given in terms of the concentration (IC50) at which the production of the plasma kallikrein was inhibited to an extent of 50%: […]"}
{"smiles": "CC(C(=O)O)c1cccc(C(=O)c2ccccc2)c1", "note": "(stereo not drawn) [Ketoprofen]", "IC50, concentration at which the production of the plasma kallikrein was inhibited to an extent of 50%": "400 micrograms/ml"}
{"smiles": "CC(C)=CCN1CCC2(C)c3cc(O)ccc3CC1C2C", "note": "(stereo not drawn) [Pentazocine]", "IC50, concentration at which the production of the plasma kallikrein was inhibited to an extent of 50%": "1,600 micrograms/ml"}
{"smiles": "CC(C)Cc1ccc(C(C)C(=O)O)cc1", "note": "(stereo not drawn) [Ibuprofen]", "IC50, concentration at which the production of the plasma kallikrein was inhibited to an extent of 50%": "700 micrograms/ml"}
